From patent US6747032B2, “Pyrimidin-4-one compounds” (Les Laboratoires Servier, priority 2001, dated 2004) come the findings set out here.

In one assay the test system is male CD-1 mice. The assay can be described thus: Test for aggressiveness caused by isolation, in the mouse. As to conditions: isolated male CD-1 mice, i.p., 30 min before test, measured over three minutes. The assay is classed as in vivo. As for the experimental part:
The animals used are male CD-1 mice. From the time of their arrival, the mice are isolated in individual cages, with free access to food and drink. After a period of one month of isolation, pairs of mice that are stable in terms of aggressiveness are selected by observing the latency period and the number and the duration of attacks when the mice are placed in the presence of one another.
The test is conducted once per week. On the day of the test, each mouse of the pair (resident and intruder) is given an intraperitoneal injection of the vehicle (control animals) or of the compound under test (treated animals) in a volume of 10 ml/kg. After 30 minutes, the intruder mouse is introduced into the cage of the resident mouse. The latency period until the first attack and the number and the duration of attacks are then measured over a period of three minutes.
A compound is considered to be specifically anti-aggressive when it reduces the number and the duration of attacks at non-sedative doses.

The next assay addresses T1, 5-HT2c receptors (Rattus norvegicus, UniProt P08909).
T1 construct: from tissue; host or cells: whole animal (male Wistar rat, in vivo)
T1 sequence (P08909 33-460): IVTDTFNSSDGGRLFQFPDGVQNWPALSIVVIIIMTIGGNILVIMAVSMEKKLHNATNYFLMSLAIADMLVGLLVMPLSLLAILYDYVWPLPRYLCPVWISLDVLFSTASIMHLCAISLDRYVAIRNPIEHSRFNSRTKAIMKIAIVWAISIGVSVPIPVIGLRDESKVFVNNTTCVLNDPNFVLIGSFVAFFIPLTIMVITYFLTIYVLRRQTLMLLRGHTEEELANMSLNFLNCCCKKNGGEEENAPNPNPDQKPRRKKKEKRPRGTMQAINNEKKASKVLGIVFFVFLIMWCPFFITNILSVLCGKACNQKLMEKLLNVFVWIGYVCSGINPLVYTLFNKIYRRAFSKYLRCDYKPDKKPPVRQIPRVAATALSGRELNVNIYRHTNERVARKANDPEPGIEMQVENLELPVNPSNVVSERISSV
The assay can be described thus: Penile erection test in the rat (erections caused by RO 60-0175). The assay is classed as in vivo. As to conditions: sc, male Wistar rats, s.c., compound 30 min before RO 60-0175 (1.25 mg/kg s.c.), erections counted over 30 min, read-out: inhibitory dose 50 (ID50), inhibition of penile erections caused by RO 60-0175. How it is done:
This test allows evaluation of the capacity of pharmacological agents to inhibit penile erections caused by administration of a selective 5-HT2c agonist, RO 60-0175.
Male rats of the Wistar strain weighing 120-140 g on the day of the experiment are placed separately in plexiglass observation boxes immediately after the compound under test or the vehicle has been administered. Thirty minutes later, RO 60-0175 (1.25 mg/kg, subcutaneous) is administered to the animals and the number of erections occurring during the next 30 minutes is counted.

A further assay has as its target α2-adrenergic receptors. Kind of assay: Affinity for α2-adrenergic receptors, competition with [3H]-RX 821,002. The assay is classed as binding. As to conditions: rat cerebral cortex membranes, 0.4 nM [3H]-RX 821,002, 60 minutes at 22° C. How it is done:
The affinity was determined by competition experiments with [^3H]-RX 821,002. The membranes are prepared from the cerebral cortex of the rat and are incubated in triplicate with 0.4 nM [^3H]-RX 821,002 and the compound being tested in a final volume of 1.0 ml, for 60 minutes at 22° C. The incubation buffer contains […] TRIS-HCl (pH 7.5), 1 mM EDTA and 100 μM GppNHp. The non-specific binding is determined using 10 μM phentolamine.
Data Analysis: At the end of the incubation, the incubation medium is filtered through WHATMAN GF/B filters impregnated with 0.1% of polyethylenimine and washed three times with 5 ml of cooled buffer. The radioactivity retained on the filters is determined by liquid scintillation counting. The binding isotherms are analysed by non-linear regression.

Assay [1] relates to male mice of the NMRI strain. The assay can be described thus: Marble-burying test in the mouse. The assay is classed as in vivo. The following applies: s.c., 30 minutes' exploration, 24 marbles. The source says:
This test allows evaluation of the capacity of pharmacological agents to inhibit spontaneous marble-burying behaviour in the mouse, the inhibition being predictive of antidepressant and/or anti-impulsive action.
Male mice of the NMRI strain weighing from 20 to 25 g on the day of the experiment are placed individually in Macrolon boxes containing 5 cm of sawdust and covered with a perforated plexiglass plate. Twenty-four “tiger's eye” glass marbles are evenly distributed on the sawdust at the periphery of the box. At the end of 30 minutes' free exploration, the animals are removed from the box and the number of buried marbles is counted.

One may read the pKi as −log10 of the Ki, conventionally taken in molar units. A lower pKi goes with a high Ki. With `Cc1nc2ccccn2c(=O)c1CCN1CC2COc3ccc4ccccc4c3C2C1.O=C(O)/C=C/C(=O)O` (stereo not shown) [Example 3, 3-[2-(1,3a,4,11c-Tetrahydrobenzo[5,6]chromeno[3,4-c]pyrrol-2(3H)-yl)-ethyl]-2-methyl-4H-pyrido[1,2-a]pyrimidin-4-one Fumarate], the “inhibitory dose 50 (ID50), number and duration of attacks” value in the assay on male CD-1 mice came out at 7 mg/kg. Besides, the ED50 on 5-HT2c receptors worked out at 2.6 mg/kg. This molecule displayed a negative-log Ki (pKi) on α2-adrenergic receptors of 7.5. Also, in assay [1], the “inhibitory dose 50 (ID50), spontaneous marble-burying behaviour” value is recorded as 4.1 mg/kg.
